The record followed here is patent publication US12371428B2 (Exelixis, Inc., priority 2019, dated 2025).

One may read the IC50 as the concentration needed to halve the response being measured.

The target in test [1] is Mer (phospho-Mer, MERTK-transfected 293A cells) (Homo sapiens (Human), UniProt Q12866). The experiment in a line: Mer autophosphorylation ELISA in transient transfected 293A cells (Example H). Type of test: cell-based. The note with it: cellular activity; Mer autophosphorylation ELISA in transient transfected 293A cells. An outline of the steps:
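Inhibition of cellular Mer autophosphorylation is determined in 293A cells transiently expressing human MERTK after 1 h compound exposure (8 concentrations, serum-free, 0.3% DMSO). Phospho-Mer in clarified lysates is measured by ELISA, with DMSO and reference-inhibitor wells defining the 100% and 0% activity limits.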

The target in test [2] is Human MER (residues 528-999) (Homo sapiens (Human), UniProt Q12866). The experiment in a line: Human Mer kinase assay, HTRF KinEase (Example C-2). Type of test: biochemical. The note with it: protocol of Example C-2 (other compounds). An outline of the steps:
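IC50 values from 10 concentrations via 4-parameter logistic fit of […], with DMSO as 100% and 1 μM reference compound as 0% activity. Reaction: MER kinase domain 528-999, 1 ng/well, 40 μM ATP (Km), biotin peptide, 5 mM MgCl2, 1 mM DTT, 3% DMSO, room temperature 60 min; HTRF streptavidin-XL665/Eu-antibody detection.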
A general note: Time-resolved FRET reads energy transfer from a long-lived donor to a nearby acceptor.

In test [3] the target is Human KDR (residues 790-1356) (Homo sapiens (Human), UniProt P35968). The experiment in a line: Human KDR kinase assay, HTRF KinEase (Example B-2). The note with it: protocol of Example B-2 (other compounds). The class given is biochemical. The gist of the method:
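Human KDR residues 790-1356 (0.1 ng/well) in buffer with 5 mM MgCl2, 1 mM MnCl2, 1 mM DTT, biotinylated peptide substrate, ATP at Km (4.0 μM), 3% DMSO, 10 compound concentrations; 40 min, room temperature. EDTA stop, streptavidin-XL665/Eu-TK antibody HTRF read 665/620 nm; 4-parameter IC50.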

Each structure is given as a SMILES string.

Chain of Human KDR (residues 790-1356) (P35968 790-1356): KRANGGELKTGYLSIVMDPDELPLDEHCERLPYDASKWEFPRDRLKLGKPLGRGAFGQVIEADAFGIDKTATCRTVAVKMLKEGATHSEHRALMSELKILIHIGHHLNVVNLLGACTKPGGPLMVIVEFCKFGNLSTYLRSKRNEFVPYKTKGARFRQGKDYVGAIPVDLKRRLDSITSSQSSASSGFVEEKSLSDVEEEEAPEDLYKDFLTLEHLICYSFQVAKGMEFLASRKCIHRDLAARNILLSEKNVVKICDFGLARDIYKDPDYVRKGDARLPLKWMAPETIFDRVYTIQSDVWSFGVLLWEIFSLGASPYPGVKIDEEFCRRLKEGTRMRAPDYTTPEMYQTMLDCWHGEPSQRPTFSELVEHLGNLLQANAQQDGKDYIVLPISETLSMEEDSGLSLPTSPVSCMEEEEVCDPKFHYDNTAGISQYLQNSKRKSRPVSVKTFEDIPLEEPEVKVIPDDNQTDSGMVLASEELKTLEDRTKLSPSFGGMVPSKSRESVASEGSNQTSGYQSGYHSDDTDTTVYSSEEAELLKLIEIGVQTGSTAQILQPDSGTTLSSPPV
Chain of Human MER (residues 528-999) (Q12866 528-999): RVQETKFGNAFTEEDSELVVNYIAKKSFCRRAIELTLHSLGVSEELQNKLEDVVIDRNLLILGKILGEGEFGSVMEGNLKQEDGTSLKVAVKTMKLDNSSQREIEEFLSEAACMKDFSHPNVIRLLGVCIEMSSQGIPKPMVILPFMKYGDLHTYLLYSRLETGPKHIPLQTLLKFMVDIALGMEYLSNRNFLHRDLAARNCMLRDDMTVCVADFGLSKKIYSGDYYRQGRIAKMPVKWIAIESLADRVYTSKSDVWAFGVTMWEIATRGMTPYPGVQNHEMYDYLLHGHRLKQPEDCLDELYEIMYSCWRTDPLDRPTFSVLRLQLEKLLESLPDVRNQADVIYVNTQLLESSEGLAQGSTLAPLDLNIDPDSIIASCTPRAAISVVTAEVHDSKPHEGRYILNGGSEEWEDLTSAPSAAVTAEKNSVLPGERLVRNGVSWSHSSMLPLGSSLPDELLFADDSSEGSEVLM
Chain of Mer (phospho-Mer, MERTK-transfected 293A cells) (Q12866 21-999): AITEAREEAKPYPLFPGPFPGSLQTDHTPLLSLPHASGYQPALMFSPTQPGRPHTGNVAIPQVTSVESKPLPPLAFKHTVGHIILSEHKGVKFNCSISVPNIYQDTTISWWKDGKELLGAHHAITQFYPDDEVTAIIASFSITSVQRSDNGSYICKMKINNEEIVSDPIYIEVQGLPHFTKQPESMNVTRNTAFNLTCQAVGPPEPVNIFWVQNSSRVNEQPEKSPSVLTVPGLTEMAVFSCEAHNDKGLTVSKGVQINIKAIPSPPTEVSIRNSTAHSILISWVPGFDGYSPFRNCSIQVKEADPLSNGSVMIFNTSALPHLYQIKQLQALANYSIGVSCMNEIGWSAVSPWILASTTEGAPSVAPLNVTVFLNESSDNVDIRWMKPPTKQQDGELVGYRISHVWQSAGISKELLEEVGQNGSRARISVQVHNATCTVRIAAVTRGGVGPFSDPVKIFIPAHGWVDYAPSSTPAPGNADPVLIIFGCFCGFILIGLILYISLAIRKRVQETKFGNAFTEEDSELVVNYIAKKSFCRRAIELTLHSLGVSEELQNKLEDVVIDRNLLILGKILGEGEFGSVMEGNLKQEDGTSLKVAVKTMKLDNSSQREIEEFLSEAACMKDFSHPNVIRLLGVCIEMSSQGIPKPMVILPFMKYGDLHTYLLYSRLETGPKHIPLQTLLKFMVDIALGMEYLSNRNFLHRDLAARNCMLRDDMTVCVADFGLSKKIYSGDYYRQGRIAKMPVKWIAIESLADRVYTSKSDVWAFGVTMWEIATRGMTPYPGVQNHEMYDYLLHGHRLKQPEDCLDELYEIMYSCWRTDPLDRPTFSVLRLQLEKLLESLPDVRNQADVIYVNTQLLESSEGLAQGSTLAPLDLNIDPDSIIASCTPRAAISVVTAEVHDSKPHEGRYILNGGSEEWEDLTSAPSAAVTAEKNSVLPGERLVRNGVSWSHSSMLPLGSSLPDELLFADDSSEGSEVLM

On to `COc1cnc2c(Oc3ccc(NC(=O)c4cnc(CO)c(-c5ccc(F)cc5)c4O)cc3F)ccnc2c1` [Compound 217, N-[3-Fluoro-4-[(7-methoxy-1,5-naphthyridin-4-yl)oxy]phenyl]-5-(4-fluorophenyl)-4-hydroxy-6-(hydroxymethyl)pyridine-3-carboxamide], for which the IC50 in test [1] was less than 100 nM; in test [2] it was less than 100 nM; in test [3], 100 to 300 nM.
For `COc1cnc2c(Oc3ccc(NC(=O)c4cnc(CO)c(-c5ccc(F)cc5)c4O)cc3)ccnc2c1` [Compound 218, 5-(4-Fluorophenyl)-4-hydroxy-6-(hydroxymethyl)-N-[4-[(7-methoxy-1,5-naphthyridin-4-yl)oxy]phenyl]pyridine-3-carboxamide], the half-inhibitory concentration (IC50) in test [1] was less than 100 nM; in test [2] it was less than 100 nM; in test [3] it was 100 to 300 nM.
Take `COc1cc2nccc(Oc3ccc(NC(=O)c4ccc(C)n(-c5ccc(F)cc5C)c4=O)cc3F)c2nc1OC` [Compound 219, N-[4-[(6,7-Dimethoxy-1,5-naphthyridin-4-yl)oxy]-3-fluorophenyl]-1-(4-fluoro-2-methylphenyl)-6-methyl-2-oxopyridine-3-carboxamide]: the IC50 in test [1], in test [2] and in test [3] was less than 100 nM each time.
`COc1cnc2c(Oc3ccc(NC(=O)c4ccc(C)n(-c5ccc(F)cc5C)c4=O)cc3F)ccnc2c1` [Compound 220, N-[3-Fluoro-4-[(7-methoxy-1,5-naphthyridin-4-yl)oxy]phenyl]-1-(4-fluoro-2-methylphenyl)-6-methyl-2-oxopyridine-3-carboxamide]: the IC50 in test [1], in test [2] and in test [3] was less than 100 nM in each case.
In the case of `COc1cc2nccc(Oc3ccc(NC(=O)c4cn(C)c(CO)c(-c5ccc(F)cc5)c4=O)cc3)c2nc1OC` [Compound 221, N-[4-[(6,7-Dimethoxy-1,5-naphthyridin-4-yl)oxy]phenyl]-5-(4-fluorophenyl)-6-(hydroxymethyl)-1-methyl-4-oxopyridine-3-carboxamide], the IC50 in test [1] was less than 100 nM; in test [2], less than 100 nM; in test [3], 100 to 300 nM.
Consider `COc1cnc2c(Oc3ccc(NC(=O)c4cn(C)c(CO)c(-c5ccc(F)cc5)c4=O)cc3F)ccnc2c1` [Compound 222, N-[3-Fluoro-4-[(7-methoxy-1,5-naphthyridin-4-yl)oxy]phenyl]-5-(4-fluorophenyl)-6-(hydroxymethyl)-1-methyl-4-oxopyridine-3-carboxamide], for which the IC50 was less than 100 nM in test [1], less than 100 nM in test [2] and greater than 300 nM in test [3].
Regarding `COc1cnc2c(Oc3ccc(NC(=O)c4cn(C)c(CO)c(-c5ccc(F)cc5)c4=O)cc3)ccnc2c1` [Compound 223, 5-(4-Fluorophenyl)-6-(hydroxymethyl)-N-[4-[(7-methoxy-1,5-naphthyridin-4-yl)oxy]phenyl]-1-methyl-4-oxopyridine-3-carboxamide], the IC50 in test [1] was less than 100 nM; in test [2], less than 100 nM; in test [3] it was greater than 300 nM.
As to `COc1ccc2nccc(Oc3ccc(NC(=O)c4cn(C)c(CO)c(-c5ccc(F)cc5)c4=O)cc3F)c2n1` [Compound 224, N-[3-Fluoro-4-[(6-methoxy-1,5-naphthyridin-4-yl)oxy]phenyl]-5-(4-fluorophenyl)-6-(hydroxymethyl)-1-methyl-4-oxopyridine-3-carboxamide], the figures for the IC50 in test [1], in test [2] and in test [3] were less than 100 nM, less than 100 nM and greater than 300 nM, respectively.
On to `COc1cc2nccc(Oc3ccc(NC(=O)c4ccc(C)n(-c5ccc(F)cc5C)c4=O)cc3)c2nc1OC` [Compound 225, N-[4-[(6,7-Dimethoxy-1,5-naphthyridin-4-yl)oxy]phenyl]-1-(4-fluoro-2-methylphenyl)-6-methyl-2-oxopyridine-3-carboxamide], for which the concentration for half-maximal inhibition (IC50) in test [1], in test [2] and in test [3] was less than 100 nM throughout.
Consider `COc1cnc2c(Oc3ccc(NC(=O)c4ccc(C)n(-c5ccc(F)cc5C)c4=O)cc3)ccnc2c1` [Compound 226, 1-(4-Fluoro-2-methylphenyl)-N-[4-[(7-methoxy-1,5-naphthyridin-4-yl)oxy]phenyl]-6-methyl-2-oxopyridine-3-carboxamide], for which the 50% inhibitory concentration (IC50) in test [1] was less than 100 nM; in test [2], less than 100 nM; in test [3], 100 to 300 nM.
On to `COCCOc1nc2c(Oc3ccc(NC(=O)c4ccc(C)n(-c5ccc(F)cc5)c4=O)cc3F)ccnc2cc1OC` [Compound 227, N-[3-Fluoro-4-[[7-methoxy-6-(2-methoxyethoxy)-1,5-naphthyridin-4-yl]oxy]phenyl]-1-(4-fluorophenyl)-6-methyl-2-oxopyridine-3-carboxamide], for which the IC50 in test [1], in test [2] and in test [3] was less than 100 nM each time.
`COCCOc1nc2c(Oc3ccc(NC(=O)c4cn(C)c(CO)c(-c5ccc(F)cc5)c4=O)cc3F)ccnc2cc1OC` [Compound 228, N-[3-Fluoro-4-[[7-methoxy-6-(2-methoxyethoxy)-1,5-naphthyridin-4-yl]oxy]phenyl]-5-(4-fluorophenyl)-6-(hydroxymethyl)-1-methyl-4-oxopyridine-3-carboxamide]: the values for the IC50 in test [1], in test [2] and in test [3] were less than 100 nM, less than 100 nM and 100 to 300 nM, respectively.
On to `COc1cc2nccc(Oc3ccc(NC(=O)c4ccc(C)n(-c5ccc(F)cc5)c4=O)cc3)c2nc1OC` [Compound 229, N-[4-[(6,7-Dimethoxy-1,5-naphthyridin-4-yl)oxy]phenyl]-1-(4-fluorophenyl)-6-methyl-2-oxopyridine-3-carboxamide], for which the IC50 in test [1], in test [2] and in test [3] was less than 100 nM in each case.
As to `COc1ccc2nccc(Oc3ccc(NC(=O)c4n[nH]c(C)c(-c5ccc(F)cc5C)c4=O)cc3F)c2n1` [Compound 230, N-[3-Fluoro-4-[(6-methoxy-1,5-naphthyridin-4-yl)oxy]phenyl]-5-(4-fluoro-2-methylphenyl)-6-methyl-4-oxo-1H-pyridazine-3-carboxamide], the IC50 in test [1] was less than 100 nM; in test [2] it was less than 100 nM; in test [3], greater than 300 nM.
As to `COc1ccc2nccc(Oc3ccc(NC(=O)c4cnc(CO)c(-c5ccc(F)cc5)c4O)cc3F)c2n1` [Compound 231, N-[3-Fluoro-4-[(6-methoxy-1,5-naphthyridin-4-yl)oxy]phenyl]-5-(4-fluorophenyl)-4-hydroxy-6-(hydroxymethyl)pyridine-3-carboxamide], the IC50 was less than 100 nM in test [1], less than 100 nM in test [2] and 100 to 300 nM in test [3].
As to `COc1ccc2nccc(Oc3ccc(NC(=O)c4cnc(C)n(-c5ccc(F)cc5)c4=O)cc3F)c2n1` [Compound 232, N-[3-Fluoro-4-[(6-methoxy-1,5-naphthyridin-4-yl)oxy]phenyl]-1-(4-fluorophenyl)-2-methyl-6-oxopyrimidine-5-carboxamide], the IC50 in test [1] is less than 100 nM; in test [2] it was less than 100 nM; in test [3] it was greater than 300 nM.
For `COc1ccc2nccc(Oc3ccc(NC(=O)c4c(C)nc(C)n(-c5ccc(F)cc5)c4=O)cc3F)c2n1` [Compound 233, N-[3-Fluoro-4-[(6-methoxy-1,5-naphthyridin-4-yl)oxy]phenyl]-1-(4-fluorophenyl)-2,4-dimethyl-6-oxopyrimidine-5-carboxamide], the half-maximal inhibitory concentration (IC50) in test [1], in test [2] and in test [3] was less than 100 nM throughout.
Regarding `COc1ccc2nccc(Oc3ccc(NC(=O)c4c(C)ncn(-c5ccc(F)cc5)c4=O)cc3F)c2n1` [Compound 234, N-[3-Fluoro-4-[(6-methoxy-1,5-naphthyridin-4-yl)oxy]phenyl]-1-(4-fluorophenyl)-4-methyl-6-oxopyrimidine-5-carboxamide], the IC50 in test [1] was less than 100 nM; in test [2], less than 100 nM; in test [3] it was greater than 300 nM.
On to `COc1cc2nccc(Oc3ccc(NC(=O)c4c(C)ncc(-c5ccc(F)cc5)c4O)cc3)c2nc1OC` [Compound 235, N-[4-[(6,7-Dimethoxy-1,5-naphthyridin-4-yl)oxy]phenyl]-5-(4-fluorophenyl)-4-hydroxy-2-methylpyridine-3-carboxamide], for which the IC50 in test [1], in test [2] and in test [3] was less than 100 nM in each case.
Take `COc1cnc2c(Oc3ccc(NC(=O)c4c(C)ncc(-c5ccc(F)cc5)c4O)cc3)ccnc2c1` [Compound 236, 5-(4-Fluorophenyl)-4-hydroxy-N-[4-[(7-methoxy-1,5-naphthyridin-4-yl)oxy]phenyl]-2-methylpyridine-3-carboxamide]: the IC50 in test [1], in test [2] and in test [3] was less than 100 nM in each case.
Consider `COc1cc2nccc(Oc3ccc(NC(=O)c4c(C)ncc(-c5ccc(F)cc5)c4O)cc3F)c2nc1OC` [Compound 237, N-[4-[(6,7-Dimethoxy-1,5-naphthyridin-4-yl)oxy]-3-fluorophenyl]-5-(4-fluorophenyl)-4-hydroxy-2-methylpyridine-3-carboxamide], for which the half-inhibitory concentration (IC50) in test [1], in test [2] and in test [3] was less than 100 nM in each case.
